Measured values: the NIST ThermoML archive (doi:10.1021/je049959i)
Numbers after ± are expanded uncertainties.

Conditions: Liquid, Closed cell (Static) method

CCCC [butane]
vapor or sublimation pressure (330.16 K): 592.44 ± 2.6 kPa

CC(C)C [2-methylpropane]
vapor or sublimation pressure (318.59 K): 610.84 ± 2.1 kPa

CCCO [propan-1-ol]
vapor or sublimation pressure (318.58 K): 9.47 ± 0.17 kPa | vapor or sublimation pressure (323.07 K): 12.07 ± 0.18 kPa | vapor or sublimation pressure (323.26 K): 12.27 ± 0.18 kPa | vapor or sublimation pressure (330.16 K): 17.57 ± 0.19 kPa | vapor or sublimation pressure (331.92 K): 19.07 ± 0.18 kPa | vapor or sublimation pressure (332.05 K): 19.17 ± 0.18 kPa

C/C=C/C [(E)-2-butene]
vapor or sublimation pressure (332.05 K): 606.54 ± 2.2 kPa

C/C=C\C [(Z)-2-butene]
vapor or sublimation pressure (331.92 K): 561.34 ± 2.1 kPa

C=C(C)C [2-methylpropene]
vapor or sublimation pressure (323.07 K): 607.94 ± 2.1 kPa

C=CCC [1-butene]
vapor or sublimation pressure (323.27 K): 596.14 ± 2.1 kPa
